Source: US10385097B2, “Ether compounds for treatment of medical disorders” (Achillion Pharmaceuticals, Inc., priority 2015, dated 2019)
Like-named read-outs stand apart in the source and are kept apart here.

Biological target: T1, Human Factor D (Homo sapiens, UniProt P00746)
T1 construct: purified from human serum; purchased Complement Technology, Inc; host or cells: human serum (natural protein, not recombinant)
Experiment: Human Factor D Assay
Type: biochemical
Method: Example 8. Human Factor D Assay
Human Factor D (purified from human serum, Complement Technology, Inc.) at 80 nM final concentration is incubated with test compound at various concentrations for 5 minutes at room temperature in 50 mM Tris, 1M NaCl, pH 7.5. A synthetic substrate Z-L-Lys-SBzl and DTNB (Ellman's reagent) are added to final concentrations of 100 μM each. Absorbance at 405 nm (A405) is recorded at 30 second intervals for 30 minutes using a microplate spectrophotometer. IC50 values are calculated by nonlinear regression of complement Factor D reaction rates as a function of test compound concentration.

[1] = Table 1, Human Factor D 80 nM, substrate Z-L-Lys-SBzl, read-out: IC50
[2] = Table 2, Human Factor D 80 nM, substrate Z-L-Lys-SBzl, read-out: IC50
[3] = Table 3, Human Factor D 80 nM, substrate Z-L-Lys-SBzl, read-out: (IC50 (Stars))

T1 sequence (P00746 26-253): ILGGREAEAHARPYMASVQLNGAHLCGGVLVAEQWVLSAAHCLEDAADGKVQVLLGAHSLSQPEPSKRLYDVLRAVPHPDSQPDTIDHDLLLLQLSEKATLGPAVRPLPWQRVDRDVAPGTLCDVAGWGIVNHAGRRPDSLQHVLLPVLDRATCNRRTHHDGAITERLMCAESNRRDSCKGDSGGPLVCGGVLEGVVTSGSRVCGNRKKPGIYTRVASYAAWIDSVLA

Row | Compound | IC50 [1] | also measured
1 | CC(=O)c1cn(CC(=O)N2C[C@H](F)C[C@H]2C(=O)Nc2cccc(Oc3ccccc3)c2)c2cc(OCP(=O)(O)O)ccc12 [Compound 26, (3-acetyl-1-(2-((2S,4R)-4-fluoro-2-(3-phenoxyphenylcarbamoyl)pyrrolidin-1-yl)-2-oxoethyl)-1H-indol-6-yloxy)methylphosphonic acid] | < 1 µM | –
2 | CC(=O)c1cn(CC(=O)N2C[C@H](F)C[C@H]2C(=O)Nc2cccc(OC(F)(F)F)c2F)c2cc(OCP(=O)(O)O)ccc12 [Compound 27, (3-acetyl-1-(2-((2S,4R)-4-fluoro-2-(2-fluoro-3-(trifluoromethoxy)phenylcarbamoyl)pyrrolidin-1-yl)-2-oxoethyl)-1H-indol-6-yloxy)methylphosphonic acid] | < 1 µM | –
3 | CC(C)(C)NS(=O)(=O)COc1ccc2c(C(N)=O)nn(CC(=O)N3C[C@H](F)C[C@H]3C(=O)Nc3cccc(-c4ccccc4Cl)c3F)c2c1 [Compound 28] | < 1 µM | –
4 | NC(=O)c1nn(CC(=O)N2C[C@H](F)C[C@H]2C(=O)Nc2cccc(-c3ccccc3Cl)c2F)c2cc(OCS(N)(=O)=O)ccc12 [Compound 29] | < 1 µM | –
5 | CC(=O)c1cn(CC(=O)N2C[C@H](F)C[C@H]2C(=O)NCc2cccc(Cl)c2F)c2cc(Oc3ncccn3)ccc12 [Compound 30, (2S,4R)-1-(2-(3-Acetyl-6-(pyrimidin-2-yloxy)-1H-indol-1-yl)acetyl)-N-(3-chloro-2-fluorobenzyl)-4-fluoropyrrolidine-2-carboxamide] | < 1 µM | –
6 | NC(=O)c1nn(CC(=O)N2C[C@H](F)C[C@H]2C(=O)Nc2cccc(-c3ccccc3Cl)c2F)c2ccc(Oc3cncnc3)cc12 [Compound 31, 1-(2-((2S,4R)-2-((2′-Chloro-2-fluoro-[1,1′-biphenyl]-3-yl)carbamoyl)-4-fluoropyrrolidin-1-yl)-2-oxoethyl)-5-(pyrimidin-5-yloxy)-1H-indazole-3-carboxamide] | – | IC50: < 1 µM
7 | CC(=O)c1cn(CC(=O)N2C[C@H](F)C[C@H]2C(=O)Nc2cccc(-c3ccccc3Cl)c2F)c2cc(Oc3ncccn3)ccc12 [Compound 32, (2S,4R)-1-(2-(3-Acetyl-6-(pyrimidin-2-yloxy)-1H-indol-1-yl)acetyl)-N-(2′-chloro-2-fluoro-[1,1′-biphenyl]-3-yl)-4-fluoropyrrolidine-2-carboxamide] | < 1 µM | –
8 | CC(=O)c1cn(CC(=O)N2C[C@H](F)C[C@H]2C(=O)Nc2cccc(-c3ccccc3Cl)c2F)c2ccc(Oc3ncc(Br)cn3)cc12 [Compound 33, (2S,4R)-1-(2-(3-Acetyl-5-((5-bromopyrimidin-2-yl)oxy)-1H-indol-1-yl)acetyl)-N-(2′-chloro-2-fluoro-[1,1′-biphenyl]-3-yl)-4-fluoropyrrolidine-2-carboxamide] | < 1 µM | –
9 | CC(=O)c1cn(CC(=O)N2[C@@H]3C[C@@H]3C[C@H]2C(=O)Nc2cccc(-c3ccccc3Cl)c2F)c2ccc(Oc3ncc(Br)cn3)cc12 [Compound 34, (1R,3S,5R)-2-(2-(3-Acetyl-5-((5-bromopyrimidin-2-yl)oxy)-1H-indol-1-yl)acetyl)-N-(2′-chloro-2-fluoro-[1,1′-biphenyl]-3-yl)-2-azabicyclo[3.1.0]hexane-3-carboxamide] | < 1 µM | –
10 | CC(=O)c1cn(CC(=O)N2C[C@H](F)C[C@H]2C(=O)Nc2cccc(Br)n2)c2ccc(Oc3ncc(Br)cn3)cc12 [Compound 35, (2S,4R)-1-(2-(3-acetyl-5-(5-bromopyrimidin-2-yloxy)-1H-indol-1-yl)acetyl)-N-(6-bromopyridin-2-yl)-4-fluoropyrrolidine-2-carboxamide] | < 1 µM | –
11 | CC(=O)c1cn(CC(=O)N2C[C@H](F)C[C@H]2C(=O)Nc2cccc(-c3ccccc3Cl)c2F)c2ccc(Oc3cnc(C#N)nc3)cc12 [Compound 36, (2S,4R)-1-(2-(3-acetyl-5-(2-cyanopyrimidin-5-yloxy)-1H-indol-1-yl)acetyl)-N-(2′-chloro-2-fluorobiphenyl-3-yl)-4-fluoropyrrolidine-2-carboxamide] | < 1 µM | –
12 | CC(=O)c1cn(CC(=O)N2C[C@H](F)C[C@H]2C(=O)Nc2cccc(-c3ccccc3Cl)c2F)c2ccc(Oc3ncc(F)cn3)cc12 [Compound 37, (2S,4R)-1-(2-(3-acetyl-5-(5-fluoropyrimidin-2-yloxy)-1H-indol-1-yl)acetyl)-N-(2′-chloro-2-fluorobiphenyl-3-yl)-4-fluoropyrrolidine-2-carboxamide] | < 1 µM | –
13 | CC(=O)c1cn(CC(=O)N2C[C@H](F)C[C@H]2C(=O)Nc2cccc(-c3ccccc3Cl)c2F)c2ccc(Oc3ncccn3)cc12 [Compound 38, (2S,4R)-1-(2-(3-acetyl-5-(pyrimidin-2-yloxy)-1H-indol-1-yl)acetyl)-N-(2′-chloro-2-fluorobiphenyl-3-yl)-4-fluoropyrrolidine-2-carboxamide] | < 1 µM | –
14 | CC(=O)c1cn(CC(=O)N2C[C@H](F)C[C@H]2C(=O)Nc2cccc(Br)n2)c2ccc(Oc3ncccn3)cc12 [Compound 39, (2S,4R)-1-(2-(3-acetyl-5-(pyrimidin-2-yloxy)-1H-indol-1-yl)acetyl)-N-(6-bromopyridin-2-yl)-4-fluoropyrrolidine-2-carboxamide] | < 1 µM | –
15 | CC(=O)c1cn(CC(=O)N2C[C@H](F)C[C@H]2C(=O)Nc2cccc(-c3ccccc3Cl)c2F)c2ccc(Oc3ncc(C)cn3)cc12 [Compound 40, (2S,4R)-1-(2-(3-acetyl-5-(5-methylpyrimidin-2-yloxy)-1H-indol-1-yl)acetyl)-N-(2′-chloro-2-fluorobiphenyl-3-yl)-4-fluoropyrrolidine-2-carboxamide] | < 1 µM | –
16 | CC(=O)c1cn(CC(=O)N2C[C@H](F)C[C@H]2C(=O)Nc2cccc(Br)n2)c2ccc(Oc3ncc(C)cn3)cc12 [Compound 41, (2S,4R)-1-(2-(3-acetyl-5-(5-methylpyrimidin-2-yloxy)-1H-indol-1-yl)acetyl)-N-(6-bromopyridin-2-yl)-4-fluoropyrrolidine-2-carboxamide] | < 1 µM | –
17 | CC(=O)c1cn(CC(=O)N2C[C@H](F)C[C@H]2C(=O)Nc2cccc(-c3ccccc3Cl)c2F)c2ccc(Oc3ncc(C(F)(F)F)cn3)cc12 [Compound 42, (2S,4R)-1-(2-(3-acetyl-5-(5-(trifluoromethyl)pyrimidin-2-yloxy)-1H-indol-1-yl)acetyl)-N-(2′-chloro-2-fluorobiphenyl-3-yl)-4-fluoropyrrolidine-2-carboxamide] | < 1 µM | –
18 | CC(=O)c1cn(CC(=O)N2C[C@H](F)C[C@H]2C(=O)Nc2cccc(-c3ccccc3Cl)c2F)c2ccc(Oc3cnc(Cl)nc3)cc12 [Compound 43, (2S,4R)-1-(2-(3-acetyl-5-(2-chloropyrimidin-5-yloxy)-1H-indol-1-yl)acetyl)-N-(2′-chloro-2-fluorobiphenyl-3-yl)-4-fluoropyrrolidine-2-carboxamide] | – | IC50: < 1 µM
19 | CC(=O)c1cn(CC(=O)N2C[C@H](F)C[C@H]2C(=O)Nc2cccc(-c3ccccc3Cl)c2F)c2ccc(O[C@@H]3CO[C@H]4[C@@H]3OC[C@H]4O)cc12 [Compound 44] | – | IC50 [2]: < 1 µM
20 | CC(=O)c1cn(CC(=O)N2C[C@H](F)C[C@H]2C(=O)Nc2cccc(Br)n2)c2ccc(O[C@@H]3CO[C@H]4[C@@H]3OC[C@H]4O)cc12 [Compound 45, (2S,4R)-1-(2-(3-acetyl-5-((3R,3aR,6R,6aR)-6-hydroxyhexahydrofuro[3,2-b]furan-3-yloxy)-1H-indol-1-yl)acetyl)-N-(6-bromopyridin-2-yl)-4-fluoropyrrolidine-2-carboxamide] | – | IC50 [2]: < 1 µM
21 | CO[C@@H]1CO[C@H]2[C@@H]1OC[C@H]2Oc1ccc2c(c1)c(C(C)=O)cn2CC(=O)N1C[C@H](F)C[C@H]1C(=O)Nc1cccc(-c2ccccc2Cl)c1F [Compound 46, (2S,4R)-1-(2-(3-acetyl-5-((3R,3aR,6R,6aR)-6-methoxyhexahydrofuro[3,2-b]furan-3-yloxy)-1H-indol-1-yl)acetyl)-N-(2′-chloro-2-fluorobiphenyl-3-yl)-4-fluoropyrrolidine-2-carboxamide] | – | IC50 [2]: < 1 µM
22 | CO[C@@H]1CO[C@H]2[C@@H]1OC[C@H]2Oc1ccc2c(c1)c(C(C)=O)cn2CC(=O)N1C[C@H](F)C[C@H]1C(=O)Nc1cccc(Br)n1 [Compound 47, (2S,4R)-1-(2-(3-acetyl-5-((3R,3aR,6R,6aR)-6-methoxyhexahydrofuro[3,2-b]furan-3-yloxy)-1H-indol-1-yl)acetyl)-N-(6-bromopyridin-2-yl)-4-fluoropyrrolidine-2-carboxamide] | – | IC50 [2]: < 1 µM
23 | CC(=O)c1cn(CC(=O)N2C[C@H](F)C[C@H]2C(=O)NCc2ccccc2)c2ccc(OCS(=O)(=O)NC(C)(C)C)cc12 [Compound 129, (2S,4R)-1-(2-(3-Acetyl-5-((N-(tert-butyl)sulfamoyl)methoxy)-1H-indol-1-yl)acetyl)-N-benzyl-4-fluoropyrrolidine-2-carboxamide] | – | IC50 [3]: < 1 µM
24 | CC(=O)c1cn(CC(=O)N2C[C@H](F)C[C@H]2C(=O)NCc2ccccc2)c2ccc(OCS(N)(=O)=O)cc12 [Compound 130, (2S,4R)-1-(2-(3-Acetyl-5-(sulfamoylmethoxy)-1H-indol-1-yl)acetyl)-N-benzyl-4-fluoropyrrolidine-2-carboxamide] | – | IC50 [3]: < 1 µM
25 | CC(=O)c1cn(CC(=O)N2C[C@H](F)C[C@H]2C(=O)NCCc2ccccc2)c2ccc(OCS(=O)(=O)NC(C)(C)C)cc12 [Compound 132, (2S,4R)-1-(2-(3-Acetyl-5-((N-(tert-butyl)sulfamoyl)methoxy)-1H-indol-1-yl)acetyl)-4-fluoro-N-phenethylpyrrolidine-2-carboxamide] | – | IC50 [3]: < 1 µM
26 | CC(=O)c1cn(CC(=O)N2C[C@H](F)C[C@H]2C(=O)NCCc2ccccc2)c2ccc(OCS(N)(=O)=O)cc12 [Compound 133, (2S,4R)-1-(2-(3-Acetyl-5-(sulfamoylmethoxy)-1H-indol-1-yl)acetyl)-4-fluoro-N-phenethylpyrrolidine-2-carboxamide] | – | IC50 [3]: 1 to 10 µM
